The text below walks through data of US6790958B2, “Purine inhibitors of cyclin dependent kinase 2 & IKBA” (priority 1996, dated 2004).

In brackets after ≈: the same amount, converted by molar mass.

The target of one assay is CDK2 (Homo sapiens, UniProt P24941). Kind of assay: CDK2 assay (histone H1 phosphorylation, 32P-ATP filter assay). Type of assay: biochemical. To be noted: concentration required to inhibit CDK2 activity by 50%; histone H1, 30 μM ATP, 30° C., 30 min; read-out: IC50 (μg/mL) enzyme (converted). How it is done: Compositions of this invention were assayed to determine their CDK2 inhibitory activity. The assay system (total volume of 50 μl) contained 50 mM Tris-Cl, pH 7.4, 10 mMgCl2, 5 mM DTT, 1 μg of histone H1, 30 μM ATP (1 μCi of gamma ^32P labeled ATP?), 10 μg of BSA and 1 μg of purified CDK2. After incubation at 30° C. for 30 min, the reaction was terminated by the addition of 10 μl of 10% TCA and the samples were blotted onto to nitrocellulose filters. These filters were washed extensively in 10% TCA and assayed for radioactivity. Blanks contained no enzyme. […] After incubation at 30 min., the assay tubes Were processed as above.

In assay [1] the test system is rat aortic smooth muscle cells. Briefly: Cell proliferation assay, rat aortic smooth muscle cells (MTS). To be noted: concentration required to inhibit cell proliferation by 50%, 48 hr incubation, read-out: IC50 (μg/mL) cells. Type of assay: cell-based. How it is done:
(§1) Early passage rat aortic smooth muscle cells (CV Therapeutics Cell repository) were seeded in 48 well dishes (Falcon, […]) at a density of 20,000 cells/ml of DME containing 5% heat inactivated bovine serum. The cells were incubated in a standard tissue culture incubator for 48 hr. The medium was aspirated and the wells were replenished with 0.2 ml of fresh medium. Compounds of this invention were added at concentrations ranging from 100 to 0.37 μg/ml. After 48 hr incubation, the medium was aspirated and the cultures were treated with 0.2 ml of saline 0.25 μl of phenozine methosulfate solution containing MTS (Cell Titer 96® Aqueous Non-radioactive cell proliferation assay kit, Catalog # G 5430, Promega, 2800 Woods Hollow Road, Madison, Wis. 53711-5399).

Assay [2] concerns PupVSMC rat neonatal aortic smooth muscle cells. Briefly: Cell proliferation assay, PupVSMC. It is filed as cell-based. To be noted: Rat neonatal aortic smooth muscle cells, Table 9; the values are: IC50. On the procedure:
as §1
(§2) Similar assays were performed using the following cell lines; P388—mouse lymphoid neoplasm; L1210—mouse lympheytic leukemia; Caco2 human colon adenocarcinoma; MCF7 human breast adenocarcinoma; PupVSMC rat neonatal aortic smooth muscle cells; Ovcar human ovarian Carcinoma; Pancl human pancreatic adenocarcinoma; and HUVEC human umbilical cord endothelial cells.

Assay [3] has as its system P388 mouse lymphoid neoplasm. Kind of assay: Cell proliferation assay, P388. Type of assay: cell-based. To be noted: P388 cells. On the procedure: as §1, §2
Assay [4] has as its system Pancl human pancreatic adenocarcinoma. Kind of assay: Cell proliferation assay, Panc1. Type of assay: cell-based. To be noted: Panc 1 cells. How it is done:
as §1, §2

The test system of assay [5] is Ovcar human ovarian Carcinoma. Briefly: Cell proliferation assay, OvCar. To be noted: OvCar cells. It is filed as cell-based. How it is done:
as §1, §2

On to `CC(C)n1cnc2c(NCc3ccc(F)cc3)nc(NC[C@@H](C)O)nc21`, for which the IC50 was 0.642 µM at CDK2 and above 5 µg/mL in assay [1].
With `CC(C)n1cnc2c(Nc3ccc(-c4ccccc4)cc3)nc(N(CCO)CCO)nc21`, the IC50 at CDK2 is 1.39 µM.
Same read-out and setting: the figure for `COc1cccc(CNc2nc(N(CCO)CCO)nc3c2ncn3C(C)C)c1` is 1.25 µM.
The same measure, in the same setting: as for `CC(C)n1cnc2c(NCc3ccc(Cl)cc3)nc(NCCCN)nc21`, the figure is 2.67 µM.
`CC(N)CNc1nc(NCc2ccc(Cl)cc2)c2ncn(C(C)C)c2n1` (stereo not shown) [{2-[(2-aminopropyl)amino]-9-(methylethyl)purin-6-yl}[(4-chlorophenyl)methyl]amine]: the inhibitory activity, Pup VSMC in assay [2] amounted to 0.1 µg/mL.
Consider `CC(C)n1cnc2c(Nc3ccccc3)nc(Cl)nc21` [R1=anilino; R2=isopropyl; R3=Cl], for which the IC50 at CDK2 was 3.48 µM.
With `Cc1ccc(-c2ccc(CNc3nc(N(CCO)CCO)nc4c3ncn4C(C)C)cc2)cc1`, the IC50 on CDK2 is 1.3 µM.
On the same count and under the same terms, the figure for `CC(N)CNc1nc(NCc2ccc(F)cc2)c2ncn(C(C)C)c2n1` (stereo not shown) is 1.34 µM; for `COc1ccc(CNc2nc(Cl)nc3c2ncn3C(F)(C(F)(F)F)C(F)(F)F)cc1` it is above 98.3 µM.
Same read-out and setting: the figure for `CC(C)n1cnc2c(NCc3ccc(-c4ccccn4)cc3)nc(N(CCO)CCO)nc21` is 0.358 µM; for `COc1ccc(CNc2nc(N(CCO)CCO)nc3c2ncn3C(F)(C(F)(F)F)C(F)(F)F)cc1` it is 76 µM.
Consider `COc1ccc(CNc2nc(N3CCOCC3)nc3c2ncn3C(C)C)cc1`, for which the “IC50 (μg/ml) for Inhibition of Cell Proliferation, P 388” value in assay [3] was above 5 µg/mL. Besides, the “IC50 (μg/ml) for Inhibition of Cell Proliferation, Panc 1” value in assay [4] was found to be 5.5 µg/mL. Besides, the “IC50 (μg/ml) for Inhibition of Cell Proliferation, OvCar” value in assay [5] came out at 4.0 µg/mL.
On to `CC(CO)Nc1nc(NCc2ccc(F)cc2)c2ncn(C(C)C)c2n1` (stereo not shown), for which, at CDK2, the IC50 was 0.502 µM.
Turning to `CC(C)n1cnc2c(NCc3ccc(Cl)cc3)nc(N(CCO)CCO)nc21` [listing 1 of 2 here], the inhibitory activity, Pup VSMC in assay [2] is 0.3 µg/mL.
As to `CC(C)n1cnc2c(Nc3cccc(-c4ccc(C#N)cc4)c3)nc(N(CCO)CCO)nc21`, at CDK2, the IC50 was 1.09 µM.
For `Cn1cnc2c(NCCO)nc(NCCO)nc21` [R1=ethanolamino; R2=Me; R3=Ethanolamino], the results for the IC50 (at CDK2; in assay [1]) were above 238 µM and above 70 µg/mL, respectively.
On to `CC(C)n1cnc2c(NCc3ccc(Cl)cc3)nc(NCCCCCN)nc21`, for which the IC50 on CDK2 was 77.1 µM.
Regarding `CC(C)n1cnc2c(NCc3ccc(F)cc3)nc(NC[C@H]3CCCO3)nc21`, at CDK2, the IC50 was 1.51 µM.
Same read-out and setting: as for `CC(C)[C@@H](CO)Nc1nc(NCc2ccc(F)cc2)c2ncn(C(C)C)c2n1`, the figure is 0.492 µM.
`CC(C)n1cnc2c(NCc3ccc(F)cc3)nc(N(CCO)CCO)nc21`: the IC50 was 0.386 µM at CDK2 and 2.2 µg/mL (≈ 5.66 µM) in assay [1].
Regarding `FC(F)(F)n1cnc2c(NCc3ccc(Cl)cc3)nc(Cl)nc21`, the IC50 at CDK2 was 2.76 µM.
On the same count and under the same terms, the figure for `CC(C)n1cnc2c(NCc3ccc(F)cc3)nc(NC[C@H](C)O)nc21` is 0.614 µM.
On to `CC(C)n1cnc2c(NCc3ccc(F)cc3)nc(NCCN)nc21`, for which the IC50 in assay [1] was 1.4 µg/mL (≈ 4.08 µM).
With `CC(C)[C@H](CO)Nc1nc(NCc2ccc(Cl)cc2)c2ncn(C(C)C)c2n1`, the IC50 at CDK2 is 0.472 µM.
The same measure, in the same setting: as for `COc1ccc(CNc2nc(N(CC(C)O)CC(C)O)nc3c2ncn3C(C)C)cc1` (stereo not shown), the figure is 1.87 µM.
For the compound `COc1ccc(CNc2nc(Cl)nc3c2ncn3Cc2ccccc2)cc1`, the IC50 was above 158 µM at CDK2 and above 70 µg/mL in assay [1].
In the case of `CC(C)n1cnc2c(NCC3CCCCC3)nc(Cl)nc21`, the IC50 at CDK2 was 3.25 µM.
The same measure, in the same setting: as for `OCCNc1nc(NCc2ccccc2)nc2[nH]cnc12` [R1=ethanolamino; R2=H; R3=Benzylamino], the figure is above 211 µM.
Same read-out and setting: as for `COc1cccc(CNc2nc(Cl)nc3c2ncn3C(C)C)c1`, the figure is 2.71 µM.
Regarding `COc1ccc(CNc2nc(N3CC=CC3)nc3c2ncn3C(C)C)cc1`, the IC50 was 2.74 µM on CDK2 and 12.5 µg/mL (≈ 34.3 µM) in assay [1].
Consider `COc1ccc(CNc2nc(NC(CO)CO)nc3c2ncn3C(C)C)cc1`, for which, in assay [1], the IC50 came out at 15 µg/mL (≈ 38.8 µM).
As for `CC(C)n1cnc2c(NCc3ccc4c(c3)OCO4)nc(N(CCO)CCO)nc21`, the IC50 at CDK2 is 1.93 µM.
In the case of `CC(C)[C@H](CO)Nc1nc(NCc2ccc(F)cc2)c2ncn(C(C)C)c2n1`, the IC50 on CDK2 is 0.155 µM; in assay [1], 2.7 µg/mL (≈ 6.99 µM).
Take `COc1ccc(CNc2nc(N(CCO)Cc3ccccc3)nc3c2ncn3C(C)C)cc1`: the IC50 at CDK2 was 2.24 µM.
For `COc1ccc(CNc2nc(N(CCO)CCO)nc3c2ncn3CCO)cc1`, the values for the IC50 (on CDK2; in assay [1]) were 1.24 µM and 62 µg/mL (≈ 154 µM), respectively.
Turning to `COc1ccc(CNc2nc(N3CCCC(O)C3)nc3c2ncn3C(C)C)cc1` (stereo not shown), at CDK2, the IC50 was 2.52 µM.
Consider `CC(C)n1cnc2c(NCc3ccc(Cl)cc3)nc(N(CCN)CCO)nc21` [2-[(2-aminoethyl)(6-{[(4-chlorophenyl)methyl]amino}-9-(methylethyl)purin-2-yl)amino]ethan-1-ol], for which the inhibitory activity, Pup VSMC in assay [2] was found to be 0.3 µg/mL.
In the case of `CC(C)n1cnc2c(NCc3ccc(F)cc3)nc(NC[C@@H]3CCCO3)nc21`, the IC50 at CDK2 was 1.64 µM.
In the case of `CC(C)n1cnc2c(NCc3ccc(Cl)cc3)nc(N[C@H](C)CO)nc21`, the IC50 on CDK2 is 0.934 µM.
On the same count and under the same terms, the figure for `CC(C)n1cnc2c(NCc3ccc(Cl)cc3)nc(N(CCO)CCO)nc21` [listing 2 of 2 here] is 0.296 µM.
As for `COc1ccc(CNc2nc(Cl)nc3c2ncn3C(C)C)cc1`, the figures for the IC50 (on CDK2; in assay [1]) were 12.1 µM and 77 µg/mL (≈ 232 µM), respectively.
For `COc1ccc(CNc2nc(Cl)nc3c2ncn3CCCC#N)cc1`, the IC50 at CDK2 is above 168 µM.
In the case of `CC(=O)C(C)n1cnc2c(NCc3ccc(F)cc3)nc(N(CCO)CCO)nc21` (stereo not shown), the IC50 on CDK2 is 26.4 µM.
The same measure, in the same setting: the figure for `COc1ccc(CNc2nc(Cl)nc3c2ncn3CCCCl)cc1` is above 164 µM.
Same read-out and setting: the figure for `CC(C)n1cnc2c(NCc3ccc(-c4ccccc4)cc3)nc(N(CCO)CCO)nc21` is 1.34 µM.
Same read-out and setting: the figure for `CC(=O)C(C)n1cnc2c(NCc3ccc(Cl)cc3)nc(N(CCO)CCO)nc21` (stereo not shown) is 85.5 µM; for `CC(C)n1cnc2c(NCc3ccc(-c4ccc(C(F)(F)F)cc4)cc3)nc(N(CCO)CCO)nc21` it is 1.17 µM.
Consider `COc1ccc(CNc2nc(NCCO)nc3c2ncn3C)cc1`, for which the IC50 is 12.2 µM at CDK2 and 48 µg/mL (≈ 146 µM) in assay [1].
As for `CC(C)n1cnc2c(NCc3ccc(-c4cccs4)cc3)nc(N(CCO)CCO)nc21`, on CDK2, the IC50 was 1.1 µM.
Same read-out and setting: as for `CC(C)n1cnc2c(NCc3ccc(Cl)cc3)nc(NCCN)nc21`, the figure is 0.973 µM.
With `COc1ccc(CNc2nc(N(CCO)CCO)nc3c2ncn3C)cc1`, the IC50 was 10.7 µM on CDK2 and 48 µg/mL (≈ 129 µM) in assay [1].
As for `CC(C)n1cnc2c(NCc3ccc(-c4ccccc4)cc3)nc(NCC(O)CO)nc21` (stereo not shown), the IC50 on CDK2 is 1.39 µM.
As to `COc1ccc(CNc2nc(NCC(O)CN)nc3c2ncn3C(C)C)cc1` (stereo not shown), the results for the IC50 (at CDK2; in assay [1]) were 1.56 µM and 25 µg/mL (≈ 64.9 µM), respectively.
`CC(C)n1cnc2c(NCc3ccc(Cl)cc3)nc(N[C@@H](Cc3ccccc3)C(N)=O)nc21`: the IC50 on CDK2 is 2.31 µM.
As to `CC(C)n1cnc2c(NCc3ccc(Cl)cc3)nc(NC[C@H](C)O)nc21`, the IC50 at CDK2 is 1.01 µM.
Consider `COc1ccc(CNc2nc(NCCO)nc3c2ncn3C(C)C)cc1`, for which the IC50 on CDK2 is 11.2 µM; in assay [1], 43 µg/mL (≈ 121 µM).
In the case of `CC(C)n1cnc2c(NCc3ccc(Cl)cc3)nc(N[C@@H](C)CO)nc21`, on CDK2, the IC50 is 0.694 µM.
Still for that read-out and setting: as for `CC(C)n1cnc2c(NCc3ccc(Cl)cc3)nc(NC[C@@H](C)O)nc21`, the figure is 1.15 µM.
For the compound `COc1ccc(CNc2nc(Cl)nc3c2ncn3C)cc1` [R1=4-methoxybenzylamino; R2=Me; R3=Cl], the IC50 at CDK2 is 19.8 µM; in assay [1], above 70 µg/mL.
For `CC(C)n1cnc2c(NCc3ccc(Cl)cc3)nc(NCC(O)c3ccccc3)nc21` (stereo not shown) the same measures were 0.183 µM and above 5 µg/mL.
For `CSc1ccc(Nc2nc(N(CCO)CCO)nc3c2ncn3C(C)C)cc1`, the IC50 on CDK2 was 0.174 µM.
Same read-out and setting: the figure for `CSc1cccc(Nc2nc(N(CCO)CCO)nc3c2ncn3C(C)C)c1` is 0.248 µM.
For `CCC(CO)Nc1nc(NCc2ccc(F)cc2)c2ncn(C(C)C)c2n1` (stereo not shown), the IC50 in assay [1] was determined as 2.4 µg/mL (≈ 6.44 µM).
For the compound `CC(C)n1cnc2c(NCc3ccc(Cl)cc3)nc(NC[C@@H](N)Cc3ccccc3)nc21`, the IC50 at CDK2 is 2.38 µM.
Turning to `CC(C)[C@@H](CO)Nc1nc(NCc2ccc(Cl)cc2)c2ncn(C(C)C)c2n1`, the IC50 at CDK2 was 0.124 µM.
Still for that read-out and setting: as for `CSc1ccc(Nc2nc(Cl)nc3c2ncn3C(C)C)cc1`, the figure is 1.8 µM.
